From ChEMBL document CHEMBL1201862, “PubChem BioAssay data set” (2004) come the findings set out here.

Test systems include A498; HCT-116; HCT-15; HL-60; K562; MDA-MB-435; MDA-N; NCI-H226; NCI/ADR-RES; OVCAR-3; OVCAR-4; PC-3; RXF 393; SF-268; SF-539; SN12C; SR; SW-620; T47D; TK-10.
Holding throughout (test): NCI tumour cell line growth inhibition, 48 h

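In this assay, cells in 96-well plates receive the compound at five concentrations for 48 hours. Endpoints are linearly interpolated between the surrounding concentrations. The concentration for 50% growth inhibition is given as GI50.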 Activity calls are given as the source filed them. Rule as the data show it: active = GI50 up to about 1.1 µM and inactive = higher.

Consider `CCOC(=O)c1ccc(NC2Oc3cc4c(cc3C(c3cc(OC)c(OC)c(OC)c3)C2C)OCO4)cc1` (stereo not given), for which the GI50 with A498 is 0.566 µM (active); in the test with HCT-116 it was 0.465 µM (active); in the test with HCT-15 it was 0.506 µM; with HL-60, 0.209 µM (active); in the test with K562, 0.329 µM (active); with MDA-MB-435, 0.148 µM (active). The GI50 in the test with MDA-N is 0.186 µM (active); in the test on NCI-H226, 1.51 µM (inactive); with NCI/ADR-RES it was 0.369 µM (active); in the test on OVCAR-3 it was 0.352 µM (active); in the test on OVCAR-4, 0.649 µM (active); in the test with PC-3, 0.376 µM (active). Also, the GI50 is 0.552 µM (active) in the test on RXF 393; 0.675 µM (active) with SF-268; 0.271 µM (active) with SF-539; 1.35 µM (inactive) in the test with SN12C; 0.296 µM (active) with SR; 0.339 µM (active) in the test on SW-620. The GI50 with T47D was 0.486 µM (active); in the test with TK-10 it was 15.6 µM (inactive).
On to `COc1cc2c3c(n(C)c(=O)c2cc1OC)-c1cc2c(cc1C3=O)OCO2`, for which the GI50 with A498 was 46.2 µM (inactive); in the test with HCT-116 it was 6.35 µM (inactive); with HCT-15, over 96.2 µM; with HL-60, 22 µM (inactive); with K562 it was 6.87 µM (inactive); with MDA-MB-435, 90.6 µM (inactive). The GI50 in the test with MDA-N was 41.6 µM (inactive); in the test with NCI-H226, > 72.8 µM (inactive); with NCI/ADR-RES, 41.9 µM (inactive); in the test on OVCAR-3, 53.5 µM (inactive); in the test with OVCAR-4, > 100 µM (inactive); in the test on PC-3, > 70 µM (inactive). Also, the GI50 was 30.3 µM (inactive) in the test with RXF 393; 10.7 µM (inactive) in the test with SF-268; 8.75 µM (inactive) in the test with SF-539; 38.6 µM (inactive) with SN12C; 0.105 µM (active) with SR; 10.2 µM (inactive) in the test on SW-620. In addition, the GI50 in the test on T47D was 6.64 µM (inactive); in the test on TK-10 it was > 100 µM (inactive).
